Reference: patent US6756480B2, “Modulators of receptors for parathyroid hormone and parathyroid hormone-related protein” (Amgen Inc., priority 2000, dated 2004)
Where two headings read alike, the source gives them in different places. No end group written: not given here.

Tests used:
[1] = test system: aged ovariectomized (OVX) rats; test: Monotherapy in aged ovariectomized (OVX) rats: twice-weekly treatment, BMD by DEXA and serum calcium; assay type: in vivo
Method: Eleven months after OVX, rats were treated twice per week with phosphate-buffered saline (PBS, vehicle) or with APD (0.5 mg/kg) or with PTH-(1-34)-Fc (50 nmol/kg). DEXA was performed weekly. Blood was drawn 24 hours after the second weekly injection, when the calcemic effects of PTH-Fc are typically maximal. The effects of PTH-Fc administration on lumbar BMD (FIG. 11A), tibia/femur BMD (FIG. 11B), femoral metaphysis BMD (FIG. 11C), and serum calcium (FIG. 11D) were determined.
Sprague Dawley rats were OVX'd at 3 months of age and allowed to lose bone for 11 months. Other rats were sham-operated and treated twice per week with vehicle (PBS). OVX rats were treated twice per week with SC injections of either vehicle or the bisphosphonate APD (pamidronate, 0.5 mg/kg), or with PTH-(1-34)-Fc (50 nmol/kg) or with APD+PTH-(1-34)-Fc. BMD was determined weekly via dual energy X-ray absorptiometry (DEXA). Rats were sacrificed after 4 weeks of treatment. At the start of treatment, OVX rats had significant reductions in BMD at all skeletal sites analyzed, compared to vehicle-treated […] (FIG. 11, p<0.05, 2-way ANOVA).

[2] = test system: mice; test: Mouse bioassay: SC injection days 0, 5, 10; clinical chemistry (calcium, AP, TRAP) and tibial pQCT; assay type: in vivo; conditions: for serum TRAP (osteoclast marker) / calcemic potency among the 3 Fc peptides: mice; for serum TRAP (osteoclast marker): after single SC injection; for calcemic potency among the 3 Fc peptides: serum calcium
Method: Peripheral blood was obtained daily for 3 days following single subcutaneous injections of the indicated compounds.
Peripheral quantitative computed tomography (pQCT) was performed on the proximal tibial metaphysis of mice on day 15, after injections of PTH constructs on day 0, 5 and 10.
We then tested the effects of PTH-(1-34), PTH-(1-34)-Fc, PTH-(1-31)-Fc and PTH-(1-30)-Fc in mice. Four week old male mice were injected on days 0, 5, and 10 with vehicle or with PTH fragments, by SC injection. Peripheral blood was obtained for clinical chemistry at 24, 48, and 72 h. Mice were killed on day 15, vertebrae, tibiae and femurs were harvested for histology and one tibia was collected for bone density measurements (peripheral quantitative computed tomography, pQCT). Clinical chemistry endpoints included total serum calcium, serum alkaline phosphatase (AP, a marker of osteoblast activity), and serum tartrate-resistant acid phosphatase (TRAP, a marker of osteoclast activity). For each animal, the ratio of AP:TRAP was calculated as an index of relative osteoblast activity compared to osteoclast activity. A higher AP:TRAP ratio would indicate a potentially more anabolic agent.

[3] = in vivo, circulating; cited from earlier work
[4] = test system: OVX rats; conditions: cited from earlier work
[5] = molecular target: T1, PTH-1 receptor (Homo sapiens, UniProt Q03431); conditions: cited from earlier work
T1 sequence (Q03431 27-593): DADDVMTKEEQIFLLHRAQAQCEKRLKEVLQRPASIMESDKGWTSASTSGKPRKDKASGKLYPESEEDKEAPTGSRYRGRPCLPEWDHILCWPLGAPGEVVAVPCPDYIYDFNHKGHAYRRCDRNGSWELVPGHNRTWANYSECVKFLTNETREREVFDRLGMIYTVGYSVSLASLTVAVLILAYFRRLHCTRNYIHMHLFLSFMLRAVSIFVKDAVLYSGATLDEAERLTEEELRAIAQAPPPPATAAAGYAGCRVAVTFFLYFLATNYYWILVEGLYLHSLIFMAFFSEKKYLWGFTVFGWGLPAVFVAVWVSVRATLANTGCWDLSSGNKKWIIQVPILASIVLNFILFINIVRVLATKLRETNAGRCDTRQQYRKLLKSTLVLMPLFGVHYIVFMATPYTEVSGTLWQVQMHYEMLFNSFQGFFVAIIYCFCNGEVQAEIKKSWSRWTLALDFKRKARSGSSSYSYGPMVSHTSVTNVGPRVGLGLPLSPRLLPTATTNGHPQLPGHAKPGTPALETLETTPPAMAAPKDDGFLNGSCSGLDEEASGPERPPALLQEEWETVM

[6] = molecular target: T2, rat PTH-1 receptor (Rattus norvegicus, UniProt P25961); conditions: cited from earlier work
T2 sequence (P25961 27-591): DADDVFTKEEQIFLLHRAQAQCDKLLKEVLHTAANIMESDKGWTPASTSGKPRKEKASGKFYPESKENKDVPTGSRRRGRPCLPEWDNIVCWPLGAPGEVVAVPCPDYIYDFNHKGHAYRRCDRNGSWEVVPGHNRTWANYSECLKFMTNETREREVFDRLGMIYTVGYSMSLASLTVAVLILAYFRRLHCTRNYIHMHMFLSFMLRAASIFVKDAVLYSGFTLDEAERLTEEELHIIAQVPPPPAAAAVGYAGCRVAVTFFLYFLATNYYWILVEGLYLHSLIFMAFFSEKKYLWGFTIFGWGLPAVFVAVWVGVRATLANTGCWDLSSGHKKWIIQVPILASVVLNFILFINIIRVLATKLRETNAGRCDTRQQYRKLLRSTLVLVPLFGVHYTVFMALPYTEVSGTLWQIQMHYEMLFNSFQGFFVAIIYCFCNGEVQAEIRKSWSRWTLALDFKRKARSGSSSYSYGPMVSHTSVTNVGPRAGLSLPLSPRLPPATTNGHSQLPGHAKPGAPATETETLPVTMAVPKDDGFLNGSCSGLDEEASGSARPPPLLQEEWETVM

[7] = test system: healthy humans; conditions: infusion, unlike PTH-(1-34); cited from earlier work
[8] = test system: mice; test: Acute hypercalcemia induced by PTHrP-(1-34) challenge, antagonist given SC, blood ionized calcium; assay type: in vivo; conditions: 0.5 mg/kg SC, vehicle-treated mice
Method: Normal male mice were injected SC with vehicle (PBS, circles) or with human PTHrP-(1-34) at 0.5 mg/kg (squares). PTHrP-challenged mice were then immediately injected SC with [Asn10,Leu11]PTHrP-(7-34)-Fc at 10 mg/kg (triangles) or 30 mg/kg (diamonds). Data represent group means, with an n of 6 mice/group.
We have cloned, expressed and purified [Asn10,Leu11]PTHrP-(7-34)-Fc. We tested the ability of this compound to antagonize both acute and chronic hypercalcemia responses in mice. PTHrP-(1-34) was used as a calcemic agent to evaluate the acute effects of [Asn10,Leu11]PTHrP-(7-34)-Fc. Because PTHrP is the principal mediator of HHM, this study also represents a model for hypercalcemia-inducing tumors. Briefly, blood ionized calcium (BIC) was measured at baseline, and mice were then challenged with vehicle (PBS) or with PTHrP-(1-34) (0.5 mg/kg) by SC injection. Mice were then treated once SC with varying doses of [Asn10,Leu11]PTHrP-(7-34)-Fc, or with vehicle (PBS). In vehicle-treated mice challenged with PTHrP-(1-34), a transient hypercalcemic response was observed. The peak calcemic response occurred at 3 h post challenge, and persisted until at least 6 h post challenge.

[9] = 100 nmoles/kg on day 0, 5, 10, pQCT day 15

## NCCC(O)(P(=O)(O)O)P(=O)(O)O [APD, pamidronate, reference compound]
[1]; 0.5 mg/kg twice per week
  BMD at any skeletal site compared to vehicle-treated OVX rats: did not significantly increase BMD
[1]; APD 0.5 mg/kg co-administered
  effect of co-administration on calcemic effect of PTH-(1-34)-Fc: completely blocked the calcemic effect

## PTH-(1-30)-Fc: PTH (1-30), SVSEIQLMHNLGKHLNSMERVEWLRKKLQD, linked at its C-terminus to an Fc domain (SVSEIQLMHNLGKHLNSMERVEWLRKKLQD-{Fc domain})
[2]; 100 nmoles/kg
  serum calcium: failed to significantly increase serum calcium
[2]; [9]
  bone mineral density (proximal tibial metaphysis): greatest effect
[2]; 1,000 nmoles/kg
  serum AP (osteoblast marker): greatest elevation
  time of peak serum AP after injection: 72 h
[2]; 1,000 nmoles/kg on day 0, 5, 10, pQCT day 15
  bone mineral density (proximal tibial metaphysis): least effect
[2]; all doses (100-1,000 nmoles/kg), pQCT day 15
  BMD versus controls: greater than in controls
[2]; high dose 1,000 nmoles/kg
  calculated AP:TRAP ratio: greatest increase
[2]
  serum TRAP (osteoclast marker): not significantly changed
  calcemic potency among the 3 Fc peptides: least calcemic
[2]; pQCT day 15
  increase in bone density compared with the other PTH constructs: greatest increase in bone density

## PTH-(1-31)-Fc: PTH (1-31), SVSEIQLMHNLGKHLNSMERVEWLRKKLQDV, linked at its C-terminus to an Fc domain
[2]; [9]
  bone mineral density (proximal tibial metaphysis): no effect
[2]; 300 nmoles/kg (given for PTH-(1-34)-Fc), 72 h
  serum AP (osteoblast marker): significantly elevated
[2]; high dose 1,000 nmoles/kg
  calculated AP:TRAP ratio: decreased
[2]; higher doses 300-1,000 nmoles/kg
  toxicity: significant hypercalcemia-related toxicity
[2]; low dose 100 nmoles/kg
  calculated AP:TRAP ratio: increased
[2]
  serum TRAP (osteoclast marker): dramatically increased
  calcemic potency among the 3 Fc peptides: more potent calcemic agent

## Parathyroid hormone [PTH]
[3]
  half-life: less than 1 h

## human PTH(1-28) (SVSEIQLMHNLGKHLNSMERVEWLRKKL; listed as Homo sapiens) [PTH-(1-28)]
[4]; 200 μg/kg/day
  anabolic effect: ineffective
[4]; 1,000 μg/kg/day
  anabolic effect: anabolic

## human PTH(1-30) (SVSEIQLMHNLGKHLNSMERVEWLRKKLQD; listed as Homo sapiens) [hPTH-(1-30)]
[5]
  reduction of affinity for PTH-1 receptor compared to hPTH-(1-34): 10-100 fold
[6]
  PLC activation: weak and incomplete agonist

## human PTH(1-31) [hPTH-(1-31)]
[5]
  reduction of affinity for PTH-1 receptor compared to hPTH-(1-34): 1-6 fold
[7]
  serum calcium, plasma 1,25(OH)2D3, urinary N-TX levels: failed to elevate

## human PTHrP(1-34) [PTHrP-(1-34)]
[8]
  persistence of calcemic response post challenge: at least 6 h
  time of peak calcemic response post challenge: 3 h
